Results reported in patent US11780826B2 (Amgen Inc., priority 2017, dated 2023).

test system: Bovine cardiac myofibrils; experiment: In vitro model of dose-dependent myofibril ATPase modulation (AC1.4, pyruvate kinase/lactate dehydrogenase-coupled ATPase assay at pCa25); type: biochemical; conditions: concentration at which ATPase activity was 1.4-fold higher than the bottom of the dose curve, mean of a minimum of two independent tests
Outline: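 Coupled-enzyme ATPase on bovine heart myofibrils, 1 mM ATP, EGTA/CaCl2 buffered; 340 nm readout.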

Which AC1.4 does the source give for `CC(=O)N1CC(F)(c2cccc(C(=O)N3CCC[C@@H]3C(=O)N[C@@H](c3ccc(C(F)(F)F)cc3F)C3CC3)c2)C1` [Example 796, 1-(3-(l-acetyl-3-fluoro-3-azetidinyl)benzoyl)-N-((R)-cyclopropyl(2-fluoro-4-(trifluoromethyl)phenyl)methyl)-D-prolinamide] here?
Its AC1.4 is 9.426 µM.

How did the AC1.4 turn out when `Cc1cncc(C(=O)N2[C@@H](C(=O)N[C@@H](c3cc(F)c(C(F)(F)F)cc3F)C3CC3)C[C@H]3C[C@H]32)c1` [Example 797, (1R,3R,5R)-N-((R)-cyclopropyl(2,5-difluoro-4-(trifluoromethyl)phenyl)methyl)-2-((5-methyl-3-pyridinyl)carbonyl)-2-azabicyclo[3.1.0]hexane-3-carboxamide] was run?
The AC1.4 was 9.447 µM.

Which AC1.4 does the source give for `O=C(NCc1ccc(C(F)(F)F)nc1)[C@H]1CCCCN1C(=O)c1cccc(S(=O)(=O)N2CC(F)(F)C2)c1` [Example 798, (2R)-1-((3-((3,3-difluoro-1-azetidinyl)sulfonyl)phenyl)carbonyl)-N-((6-(trifluoromethyl)-3-pyridinyl)methyl)-2-piperidinecarboxamide] here?
The AC1.4 was 9.448 µM.

Which AC1.4 does the source give for `N#CC1CN(S(=O)(=O)N2CCC[C@H](C(=O)N3CCC[C@@H]3C(=O)NC3CCC3C(F)(F)F)C2)C1` (stereo partly drawn) [Example 799, (2R)-1-((S)-1-((3-cyanoazetidin-1-yl)sulfonyl)piperidine-3-carbonyl)-N-(2-(trifluoromethyl)cyclobutyl)pyrrolidine-2-carboxamide] here?
The AC1.4 was 9.4535 µM.

`O=C(NCc1ccc(C(F)(F)F)cc1)[C@H]1CCCN1C(=O)[C@H]1CCCN(S(=O)(=O)N2CCC23CCC3)C1` [Example 800, 1-(((3S)-1-(1-azaspiro[3.3]hept-1-ylsulfonyl)-3-piperidinyl)carbonyl)-N-(4-(trifluoromethyl)benzyl)-D-prolinamide] was tested. Which AC1.4 did it give?
The AC1.4 was 9.537 µM.

`N#CC1CN(S(=O)(=O)N2CCC[C@H](C(=O)N3[C@@H]4C[C@@H]4C[C@H]3C(=O)NCc3ccc(C(F)(F)F)cc3)C2)C1` [Example 801, (1R,3S,5R)-2-(((3S)-1-((3-cyano-1-azetidinyl)sulfonyl)-3-piperidinyl)carbonyl)-N-(4-(trifluoromethyl)benzyl)-2-azabicyclo[3.1.0]hexane-3-carboxamide] was tested. Which AC1.4 did it give?
The AC1.4 was 9.578 µM.

How did the AC1.4 turn out when `CN(C)S(=O)(=O)c1cccc(C(=O)N2CCC[C@@H]2C(=O)N[C@H](c2ccc(C(F)(F)F)cc2F)C2CC2)c1` [Example 802, N-((S)-cyclopropyl(2-fluoro-4-(trifluoromethyl)phenyl)methyl)-1-(3-(dimethylsulfamoyl)benzoyl)-D-prolinamide] was run?
The AC1.4 was 9.6005 µM.

`C[C@H](NC(=O)[C@H]1CCCN1C(=O)[C@H]1CCCN(S(=O)(=O)N2CC(C#N)C2)C1)c1ccc(Cl)cc1` [Example 803, N-((1S)-1-(4-chlorophenyl)ethyl)-1-(((3S)-1-((3-cyano-1-azetidinyl)sulfonyl)-3-piperidinyl)carbonyl)-D-prolinamide] was tested. Which AC1.4 did it give?
Its AC1.4 is 9.622 µM.

How did the AC1.4 turn out when `CCC(NC(=O)[C@H]1CCCN1C(=O)[C@H]1CCCN(S(=O)(=O)N2CC(C#N)C2)C1)c1ccccc1OC` (stereo partly drawn) [Example 804, (2R)-1-((S)-1-((3-cyanoazetidin-1-yl)sulfonyl)piperidine-3-carbonyl)-N-(1-(2-methoxyphenyl)propyl)pyrrolidine-2-carboxamide] was run?
The AC1.4 was 9.7525 µM.

How did the AC1.4 turn out when `CS(=O)(=O)c1cc(C(=O)N2CCC[C@@H]2C(=O)N[C@@H](c2ccc(C(F)(F)F)cc2F)C2CC2)ccc1N` [Example 805, 1-(4-amino-3-(methylsulfonyl)benzoyl)-N-((R)-cyclopropyl(2-fluoro-4-(trifluoromethyl)phenyl)methyl)-D-prolinamide] was run?
The AC1.4 was 9.817 µM.

For `CC(=O)N1CC(NS(=O)(=O)N2CCC[C@H](C(=O)N3CCC[C@@H]3C(=O)NCc3ccc(C(F)(F)F)cc3)C2)C1` [Example 806, 1-(((3S)-1-((l-acetyl-3-azetidinyl)sulfamoyl)-3-piperidinyl)carbonyl)-N-(4-(trifluoromethyl)benzyl)-D-prolinamide], which AC1.4 is on record?
The AC1.4 was 10 µM.

Which AC1.4 does the source give for `CC(C)[C@@H](NC(=O)[C@H]1CCCN1C(=O)c1cccc(S(C)(=O)=O)c1)c1ccc(C(F)(F)F)cc1F` [Example 807, N-((1R)-1-(2-fluoro-4-(trifluoromethyl)phenyl)-2-methylpropyl)-1-(3-(methylsulfonyl)benzoyl)-D-prolinamide] here?
Its AC1.4 is 4.609 µM.

How did the AC1.4 turn out when `COc1ccc(S(C)(=O)=O)cc1C(=O)N1[C@@H](C(=O)N[C@@H](c2ccc(C(F)(F)F)cc2)C2COC2)C[C@H]2C[C@H]21` [Example 808, (1R,3R,5R)-2-(2-methoxy-5-(methylsulfonyl)benzoyl)-N-((R)-3-oxetanyl(4-(trifluoromethyl)phenyl)methyl)-2-azabicyclo[3.1.0]hexane-3-carboxamide] was run?
Its AC1.4 is 4.6765 µM.

For `CS(=O)(=O)c1cncc(C(=O)N2CCC[C@@H]2C(=O)NC(c2ccc(C(F)(F)F)cc2F)C2CC2)c1` (stereo partly drawn) [Example 809, (2R)-N-(cyclopropyl(2-fluoro-4-(trifluoromethyl)phenyl)methyl)-1-(5-(methylsulfonyl)nicotinoyl)pyrrolidine-2-carboxamide], which AC1.4 is on record?
Its AC1.4 is 4.951 µM.

How did the AC1.4 turn out when `Cc1ccc([C@H](NC(=O)[C@H]2C[C@H]3C[C@H]3N2C(=O)c2cccc(S(C)(=O)=O)c2)C2CC2)cc1F` [Example 810, (1R,3R,5R)-N-((R)-cyclopropyl(3-fluoro-4-methylphenyl)methyl)-2-(3-(methylsulfonyl)benzoyl)-2-azabicyclo[3.1.0]hexane-3-carboxamide] was run?
Its AC1.4 is 5.084 µM.

Which AC1.4 does the source give for `N#CC1CN(S(=O)(=O)N2CCC[C@H](C(=O)N3CCC[C@@H]3C(=O)NCCc3ccc(C(F)(F)F)cc3)C2)C1` [Example 811, 1-(((3S)-1-((3-cyano-1-azetidinyl)sulfonyl)-3-piperidinyl)carbonyl)-N-(2-(4-(trifluoromethyl)phenyl)ethyl)-D-prolinamide] here?
Its AC1.4 is 8.7795 µM.

How did the AC1.4 turn out when `CS(=O)(=O)c1cccc(C(=O)N2[C@@H](C(=O)N[C@@H](c3cc(F)c(Cl)cc3F)C3(F)COC3)C[C@H]3C[C@H]32)c1` [Example 812, (1R,3R,5R)-N-((S)-(4-Chloro-2,5-difluorophenyl)(3-fluorooxetan-3-yl)methyl)-2-(3-(methylsulfonyl)benzoyl)-2-azabicyclo[3.1.0]hexane-3-carboxamide] was run?
The AC1.4 was 1.5766 µM.

Which AC1.4 does the source give for `CS(=O)(=O)c1ccc(N)c(C(=O)N2[C@@H](C(=O)N[C@@H](c3ccc(C(F)(F)F)cc3F)C3CC3)C[C@H]3C[C@H]32)c1` [Example 813, (1R,3R,5R)-2-(2-amino-5-(methylsulfonyl)benzoyl)-N-((R)-cyclopropyl(2-fluoro-4-(trifluoromethyl)phenyl)methyl)-2-azabicyclo[3.1.0]hexane-3-carboxamide] here?
The AC1.4 was 0.7101 µM.

With `COc1cc(C(=O)N2[C@@H](C(=O)N[C@@H](c3cc(F)c(C(F)(F)F)cc3F)C3COC3)C[C@H]3C[C@H]32)ccn1` [Example 815, (1R,3R,5R)-N-((R)-(2,5-difluoro-4-(trifluoromethyl)phenyl)(oxetan-3-yl)methyl)-2-(2-methoxyisonicotinoyl)-2-azabicyclo[3.1.0]hexane-3-carboxamide] as the molecule, how does the AC1.4 read?
Its AC1.4 is 2.4 µM.

How did the AC1.4 turn out when `CS(=O)(=O)c1cncc(C(=O)N2[C@@H](C(=O)N[C@@H](c3cc(F)c(Cl)cc3F)C(F)F)C[C@H]3C[C@H]32)c1` [Example 817, (1R,3R,5R)-N-((S)-1-(4-chloro-2,5-difluorophenyl)-2,2-difluoroethyl)-2-(5-(methylsulfonyl)nicotinoyl)-2-azabicyclo[3.1.0]hexane-3-carboxamide] was run?
Its AC1.4 is 9.115 µM.

How did the AC1.4 turn out when `Cc1cnn(C)c1C(=O)N1[C@@H](C(=O)N[C@@H](c2cc(F)c(C(F)(F)F)cc2F)C2COC2)C[C@H]2C[C@H]21` [Example 818, (1R,3R,5R)-N-((R)-(2,5-difluoro-4-(trifluoromethyl)phenyl)(oxetan-3-yl)methyl)-2-(1,4-dimethyl-1H-pyrazole-5-carbonyl)-2-azabicyclo[3.1.0]hexane-3-carboxamide] was run?
Its AC1.4 is 4.155 µM.

How did the AC1.4 turn out when `CC(C)(O)c1cccc(C(=O)N2[C@@H](C(=O)N[C@@H](c3cc(F)c(C(F)(F)F)cc3F)C3COC3)C[C@H]3C[C@H]32)c1` [Example 819, (1R,3R,5R)-N-((R)-(2,5-difluoro-4-(trifluoromethyl)phenyl)(oxetan-3-yl)methyl)-2-(3-(2-hydroxypropan-2-yl)benzoyl)-2-azabicyclo[3.1.0]hexane-3-carboxamide] was run?
The AC1.4 was 1.3468 µM.

`Cc1cc(C(=O)N2[C@@H](C(=O)N[C@@H](c3cc(F)c(C(F)(F)F)cc3F)C3COC3)C[C@H]3C[C@H]32)c2[nH]ncc2c1` [Example 820, (1R,3R,5R)-N-((R)-(2,5-difluoro-4-(trifluoromethyl)phenyl)(oxetan-3-yl)methyl)-2-(5-methyl-1H-indazole-7-carbonyl)-2-azabicyclo[3.1.0]hexane-3-carboxamide] was tested. Which AC1.4 did it give?
The AC1.4 was 0.9916 µM.

How did the AC1.4 turn out when `O=C(N[C@@H](c1cc(F)c(C(F)(F)F)cc1F)C1CC1)[C@H]1C[C@H]2C[C@H]2N1C(=O)c1cc(Cl)cc2cn[nH]c12` [Example 821, (1R,3R,5R)-2-(5-chloro-1H-indazole-7-carbonyl)-N-((R)-cyclopropyl(2,5-difluoro-4-(trifluoromethyl)phenyl)methyl)-2-azabicyclo[3.1.0]hexane-3-carboxamide] was run?
The AC1.4 was 1.2142 µM.

With `Cc1cc(C(=O)N2[C@@H](C(=O)N[C@@H](c3cc(F)c(C(F)(F)F)cc3F)C3CC3)C[C@H]3C[C@H]32)c(C(C)O)cn1` (stereo partly drawn) [Example 822, (1R,3R,5R)-N-((R)-cyclopropyl(2,5-difluoro-4-(trifluoromethyl)phenyl)methyl)-2-(5-(l-hydroxyethyl)-2-methylisonicotinoyl)-2-azabicyclo[3.1.0]hexane-3-carboxamide] as the molecule, how does the AC1.4 read?
Its AC1.4 is 5.894 µM.

With `O=C(N[C@@H](c1cc(F)c(C(F)(F)F)cc1F)C1COC1)[C@H]1C[C@H]2C[C@H]2N1C(=O)c1cc(C(F)(F)F)on1` [Example 823, (1R,3R,5R)-N-((R)-(2,5-difluoro-4-(trifluoromethyl)phenyl)(oxetan-3-yl)methyl)-2-(5-(trifluoromethyl)isoxazole-3-carbonyl)-2-azabicyclo[3.1.0]hexane-3-carboxamide] as the molecule, how does the AC1.4 read?
The AC1.4 was 2.768 µM.
